{
  "source": "ChEMBL document CHEMBL3046703",
  "about": "“Study of mangiferin-receptor affinity by cell membrane chromatography using rat pancreas” (Med Chem Res, 2012)",
  "assay_type_in_all_cases": "cell membranes",
  "key": {"Rattus norvegicus [1]": {"species": "Rattus norvegicus", "assay": "Binding affinity to mangiferin receptor in rat islet cell membrane stationary phase assessed as ligand-membrane complex by infrared spectroscopic analysis"}, "Rattus norvegicus [2]": {"species": "Rattus norvegicus", "assay": "Binding affinity to mangiferin receptor in rat islet cell membrane stationary phase assessed as total active binding sites per islet bed by chromatographic analysis"}, "[3]": {"assay": "Binding affinity to mangiferin receptor in rat islet cell membrane stationary phase by chromatographic analysis"}},
  "note": "Active and inactive are the calls of the source. No cut-off for these calls is given here.",
  "data": [
    {"smiles": "O=c1c2cc(O)c(O)cc2oc2cc(O)c([C@@H]3O[C@H](CO)[C@@H](O)[C@H](O)[C@H]3O)c(O)c12", "note": "[MANGIFERIN]", "values": [
      {"measurement": "Activity", "setting": "Rattus norvegicus [1]", "result": "Active"},
      {"measurement": "Activity", "setting": "Rattus norvegicus [2]", "result": 22.7, "unit": "µmol"},
      {"measurement": "Kd", "setting": "[3]", "result": 400, "unit": "nM"}
    ]}
  ]
}
